The source made the active and inactive calls.
Assays:
[1] = molecular target: Eukaryotic translation initiation factor 4H (Homo sapiens, UniProt Q15056); assay: eIF4H binding inhibition – biochemical, uHTS, fluorescence polarization, translation initiation inhibitor project, primary screen (AID 2012)
[2] = molecular target: T1, Mannose-6-phosphate isomerase (Homo sapiens, UniProt P34949); assay: MPI inhibition at elevated mannose 6-phosphate – biochemical, fluorescence intensity, high mannose 6-phosphate, primary screen (AID 1220)
T1 sequence (P34949 whole entry): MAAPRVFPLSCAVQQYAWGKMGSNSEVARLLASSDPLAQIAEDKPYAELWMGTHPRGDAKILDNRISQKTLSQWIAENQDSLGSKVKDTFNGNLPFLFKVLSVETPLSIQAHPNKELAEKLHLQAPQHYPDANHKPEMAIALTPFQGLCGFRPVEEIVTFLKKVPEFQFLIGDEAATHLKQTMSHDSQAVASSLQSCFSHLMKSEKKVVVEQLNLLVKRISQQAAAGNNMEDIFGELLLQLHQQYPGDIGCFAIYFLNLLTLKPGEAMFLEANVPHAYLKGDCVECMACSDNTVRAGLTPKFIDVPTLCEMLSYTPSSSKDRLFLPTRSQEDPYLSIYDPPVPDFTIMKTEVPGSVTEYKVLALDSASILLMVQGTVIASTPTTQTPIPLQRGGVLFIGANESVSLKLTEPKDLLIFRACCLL

[3] = molecular target: Polyadenylate-binding protein 1 (Homo sapiens, UniProt P11940); assay: blockers of PABP interaction with poly(A) – biochemical, fluorescence polarization, […] (AID 2014)
[4] = molecular target: Cytochrome P450 2C9 (Homo sapiens, UniProt P11712); conditions: Potency
[5] = molecular target: Neuropeptides B/W receptor type 1 (Homo sapiens, UniProt P48145); assay: Fluorescence-based dose response cell-based high throughput screening assay to identify antagonists of the G-protein coupled receptor 7 (GPR7). [Related pubchem assays: 1952 (Screening assay (GPR7 antagonists).), 1880 (Summary AID.)]; type: functional
[6] = molecular target: T2, Neuropeptide Y receptor type 2 (Homo sapiens, UniProt P49146); assay: IC50 for human NPY-Y2 blockade – cell-based, counter-screen for NPY-Y1 antagonist project, dose response (AID 1278); type: functional
T2 sequence (P49146 whole entry): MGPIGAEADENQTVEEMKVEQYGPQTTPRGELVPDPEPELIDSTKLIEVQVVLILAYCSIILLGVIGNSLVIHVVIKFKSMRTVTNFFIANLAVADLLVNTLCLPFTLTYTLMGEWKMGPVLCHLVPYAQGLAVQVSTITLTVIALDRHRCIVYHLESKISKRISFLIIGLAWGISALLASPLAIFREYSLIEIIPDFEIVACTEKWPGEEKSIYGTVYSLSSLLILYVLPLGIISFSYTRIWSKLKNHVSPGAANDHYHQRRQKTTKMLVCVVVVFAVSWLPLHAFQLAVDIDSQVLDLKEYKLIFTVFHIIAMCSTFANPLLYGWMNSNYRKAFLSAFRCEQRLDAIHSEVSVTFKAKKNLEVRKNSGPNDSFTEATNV

[7] = molecular target: Melanin-concentrating hormone receptor 1 (Homo sapiens, UniProt Q99705); assay: Fluorescence-based counterscreen for antagonists of the G-protein coupled receptor 7 (GPR7): cell-based high throughput dose response assay to identify antagonists of the melanin-concentrating hormone receptor 1 (MCHR1).; type: functional
[8] = molecular target: T3, Neuropeptide Y receptor type 1 (Homo sapiens, UniProt P25929); assay: IC50 of human NPY-Y1 blockers – cell-based, dose response (AID 1277); type: functional
T3 sequence (P25929 whole entry): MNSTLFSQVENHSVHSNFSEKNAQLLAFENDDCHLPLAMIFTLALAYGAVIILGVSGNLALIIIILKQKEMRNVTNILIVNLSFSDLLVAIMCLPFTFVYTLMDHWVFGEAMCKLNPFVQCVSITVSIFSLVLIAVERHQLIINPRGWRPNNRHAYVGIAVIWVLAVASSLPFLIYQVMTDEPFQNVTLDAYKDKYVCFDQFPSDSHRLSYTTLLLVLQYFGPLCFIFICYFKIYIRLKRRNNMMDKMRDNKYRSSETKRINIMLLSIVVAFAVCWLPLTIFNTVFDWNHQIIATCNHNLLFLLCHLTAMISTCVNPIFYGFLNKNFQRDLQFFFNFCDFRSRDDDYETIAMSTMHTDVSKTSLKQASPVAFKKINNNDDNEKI

[9] = tested on: INS1; assay: INS-1E survival protection against cytokine death – cell-based, luminescence, retest, dose response (AID 449756); type: functional; conditions: Rattus norvegicus, INS1;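 note: cell death triggered by IL-1 beta plus TNF-alpha plus IFN-gamma mixture; protective hits raise ATP signal compared with cytokine alone wells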

Neuropeptides B/W receptor type 1, sequence (P48145 whole entry): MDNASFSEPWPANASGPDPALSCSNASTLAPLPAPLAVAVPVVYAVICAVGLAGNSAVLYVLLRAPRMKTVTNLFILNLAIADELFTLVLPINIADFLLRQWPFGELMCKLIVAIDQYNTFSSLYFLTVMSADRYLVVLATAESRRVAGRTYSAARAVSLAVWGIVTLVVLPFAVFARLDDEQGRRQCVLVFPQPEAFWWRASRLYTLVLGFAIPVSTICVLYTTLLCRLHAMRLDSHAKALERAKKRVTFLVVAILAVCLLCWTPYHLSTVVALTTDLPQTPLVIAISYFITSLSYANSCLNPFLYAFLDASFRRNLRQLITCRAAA
Melanin-concentrating hormone receptor 1, sequence (Q99705 whole entry): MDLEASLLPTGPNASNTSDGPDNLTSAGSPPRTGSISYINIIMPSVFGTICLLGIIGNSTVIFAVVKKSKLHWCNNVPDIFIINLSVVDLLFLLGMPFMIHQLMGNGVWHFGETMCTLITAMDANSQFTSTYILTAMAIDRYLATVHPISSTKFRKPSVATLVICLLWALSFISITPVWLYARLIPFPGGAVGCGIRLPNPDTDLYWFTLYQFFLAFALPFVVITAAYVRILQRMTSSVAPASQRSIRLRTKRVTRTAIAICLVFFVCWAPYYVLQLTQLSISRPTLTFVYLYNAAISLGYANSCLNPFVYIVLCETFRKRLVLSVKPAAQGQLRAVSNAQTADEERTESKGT
Cytochrome P450 2C9, sequence (P11712 whole entry): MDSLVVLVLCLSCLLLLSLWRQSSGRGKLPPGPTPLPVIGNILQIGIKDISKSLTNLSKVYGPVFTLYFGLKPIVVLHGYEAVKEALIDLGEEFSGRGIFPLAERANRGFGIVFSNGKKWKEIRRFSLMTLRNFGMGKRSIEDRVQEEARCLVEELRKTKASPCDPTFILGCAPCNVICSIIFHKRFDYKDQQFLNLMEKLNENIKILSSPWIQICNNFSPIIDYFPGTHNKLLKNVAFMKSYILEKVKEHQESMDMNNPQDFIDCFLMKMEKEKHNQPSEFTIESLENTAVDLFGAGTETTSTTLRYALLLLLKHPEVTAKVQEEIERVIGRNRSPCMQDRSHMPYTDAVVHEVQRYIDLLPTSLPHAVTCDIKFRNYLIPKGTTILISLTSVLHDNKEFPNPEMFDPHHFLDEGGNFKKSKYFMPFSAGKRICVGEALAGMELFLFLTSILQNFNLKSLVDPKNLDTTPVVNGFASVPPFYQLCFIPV
Polyadenylate-binding protein 1, sequence (P11940 whole entry): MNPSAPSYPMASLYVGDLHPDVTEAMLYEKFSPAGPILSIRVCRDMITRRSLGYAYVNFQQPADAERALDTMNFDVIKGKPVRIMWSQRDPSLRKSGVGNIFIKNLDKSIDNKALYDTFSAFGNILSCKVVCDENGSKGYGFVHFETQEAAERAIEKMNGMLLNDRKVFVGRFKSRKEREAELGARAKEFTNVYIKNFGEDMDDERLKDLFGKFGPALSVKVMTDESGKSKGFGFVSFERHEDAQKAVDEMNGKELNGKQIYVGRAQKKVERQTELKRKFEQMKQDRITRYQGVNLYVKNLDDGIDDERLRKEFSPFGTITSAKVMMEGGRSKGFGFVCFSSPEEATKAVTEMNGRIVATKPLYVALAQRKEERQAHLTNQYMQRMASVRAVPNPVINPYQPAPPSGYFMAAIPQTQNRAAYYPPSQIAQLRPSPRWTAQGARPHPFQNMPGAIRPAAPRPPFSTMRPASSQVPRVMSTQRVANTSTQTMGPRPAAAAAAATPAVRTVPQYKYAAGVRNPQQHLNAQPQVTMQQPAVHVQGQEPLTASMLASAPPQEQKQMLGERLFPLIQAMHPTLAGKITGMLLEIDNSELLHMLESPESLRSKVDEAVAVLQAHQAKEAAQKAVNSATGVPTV

With `COc1ccc(C(=O)C[N+]2(C)CCOCC2)cc1` the IC50 [1] was > 100 µM (inactive), the IC50 [2] was > 50 µM (not active) and the IC50 [3] was 4.41 µM (active).

For `CC(C)C[C@@H](CC(=O)N[C@@H](CCC(=O)O)CC(=O)O)NC(=O)[C@@H]1CCCC[C@H]1NC(=O)C[C@H](CCCN)NC(=O)C[C@H](CO)NC(=O)[C@@H]1CNCC[C@H]1N`, the AC50 [4] was 31.6 µM (inconclusive).

With `Cc1ccc(C(=O)C[n+]2cc(-c3ccccc3)n3c2CCCCC3)cc1` the IC50 [5] was 31.2 µM (not active), the IC50 [6] was 8.01 µM (active) and the IC50 [7] was > 14.6 µM (not active). The IC50 [8] was 6.06 µM (active) and the AC50 [9] was 4.71 µM (active).

From ChEMBL document CHEMBL1201862, “PubChem BioAssay data set” (2004)
